This note sets out measurements from paper PMC8165160, “Substrate Specificities and Inhibition Pattern of the Solute Carrier Family 10 Members NTCP, ASBT and SOAT” (Frontiers in Molecular Biosciences, 2021).

Molecules are shown by their SMILES. Where a name gives a salt, the structure may show the parent alone. Read-outs that look alike come from different tables or passages of the source.

The target of experiment [1] is T1, SOAT (Homo sapiens, UniProt Q3KNW5).
T1 construct: The full-length open reading frames of NTCP, ASBT, and SOAT were cloned; expressed in transfected cells; host or cells: Flp-In T-REX HEK293 (SOAT-HEK293), tetracycline-induced
T1 sequence (Q3KNW5 1-377): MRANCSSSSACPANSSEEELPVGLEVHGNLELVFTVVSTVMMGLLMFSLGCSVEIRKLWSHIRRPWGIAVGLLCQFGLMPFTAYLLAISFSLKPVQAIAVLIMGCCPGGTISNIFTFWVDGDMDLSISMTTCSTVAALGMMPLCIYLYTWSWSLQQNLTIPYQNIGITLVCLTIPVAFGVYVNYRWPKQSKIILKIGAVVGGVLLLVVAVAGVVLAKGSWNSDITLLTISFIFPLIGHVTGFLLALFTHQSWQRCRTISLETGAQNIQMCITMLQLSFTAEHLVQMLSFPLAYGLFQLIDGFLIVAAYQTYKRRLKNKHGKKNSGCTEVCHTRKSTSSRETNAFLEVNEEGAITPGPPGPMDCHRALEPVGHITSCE
The experiment in a line: Transport inhibition in SOAT-HEK293 cells. The format is cell-based. The note with it: substrate inhibitors, 1 min after 5 min preincubation. How it is done:
Cells were washed three times with PBS and were preincubated with the respective inhibitor in sodium transport buffer for 5 min at 37°C. Uptake was initiated by adding the respective radiolabeled substrate to the well and incubating for a fixed time as indicated in the figures at 37°C. Transport was terminated by removing the transport buffer and washing five-times with ice-cold PBS. Cell monolayers were lysed in 1 N NaOH with 0.1% SDS and the cell-associated radioactivity and protein content was determined as described above. For uptake inhibition with the myr-preS1 peptide the sodium transport buffer contained additionally MEM-amino acid solution (ThermoFisher) at 1:50 dilution.
All transport or inhibition graphs were generated with GraphPad Prism 6.0 (GraphPad). Determination of IC50 values was done by nonlinear regression analysis using the equation log (inhibitor) vs. response settings. If not stated otherwise in the legends all data represent means ± SD of at least triplicate determinations of representative experiments.
FIGURE 3 Inhibition of NTCP, ASBT, and SOAT with substrate inhibitors. Transport of [^3H]TC, [^3H]TLC, and [^3H]DHEAS was analyzed in NTCP-HEK293, ASBT-HEK293, and SOAT-HEK293 cells in the presence of the substrate inhibitors TC, TLC, and DHEAS at increasing concentrations ranging from 100 nM till 1000 µM. After 5 min of preincubation with the respective inhibitory compound, 200 nM [^3H]TLC, [^3H]TC or [^3H]DHEAS were added for additional 1 min and the cell lysates were analyzed by liquid scintillation counting. Unspecific uptake of HEK293-FlpIn cells was set to 0%. Carrier-specific uptake without inhibitor was set to 100%.
Transport of [^3H]TC, [^3H]TLC, and [^3H]DHEAS was analyzed in NTCP-HEK293, ASBT-HEK293, and SOAT-HEK293 cells in the presence of different supposed non-substrate triterpenoid inhibitors as indicated at increasing concentrations ranging from 100 nM till 1000 µM. After 5 min of preincubation with the respective inhibitory compound, 1 µM [^3H]TLC, [^3H]TC or [^3H]DHEAS were added for additional 10 min at 37°C and the cell lysates were analyzed by liquid scintillation counting. Experiments performed without inhibitor were set to 100%. Means of negative controls were subtracted to calculate net transport rates (expressed as percentage of control). Data represent means ± SD of quadruplicate determinations of representative experiments.

Experiment [2] deals with T2, NTCP (Homo sapiens, UniProt Q14973).
T2 sequence (Q14973 1-349): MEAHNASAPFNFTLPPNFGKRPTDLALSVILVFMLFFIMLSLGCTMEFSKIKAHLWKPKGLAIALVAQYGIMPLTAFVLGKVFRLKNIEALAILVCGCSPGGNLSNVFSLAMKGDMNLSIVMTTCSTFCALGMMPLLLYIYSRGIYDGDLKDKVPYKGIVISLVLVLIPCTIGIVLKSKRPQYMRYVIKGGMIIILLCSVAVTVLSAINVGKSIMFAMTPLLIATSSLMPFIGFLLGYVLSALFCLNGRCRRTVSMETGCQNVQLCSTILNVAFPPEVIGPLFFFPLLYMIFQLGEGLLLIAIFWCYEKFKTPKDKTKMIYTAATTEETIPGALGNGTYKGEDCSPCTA
Description: Substrate screening: sodium-dependent uptake of radiolabeled compounds in NTCP-HEK293 cells. The format is cell-based. Set-up: The full-length open reading frames of NTCP, ASBT, and SOAT were cloned; expressed in transfected cells; host or cells: Flp-In T-REX HEK293 (NTCP-HEK293), tetracycline-induced. The note with it: NTCP-HEK293, vs sodium-free control. How it is done:
Stably SLC10 transporter transfected NTCP-HEK293, ASBT-HEK293, SOAT-HEK293 cells and the HEK293-FlpIn maternal cell line were seeded on 24-well plates (if not stated otherwise for individual assays). Well plates were coated with poly-D-lysine prior to seeding of 125,000 cells per well. Cells were grown with 1 ml of standard medium per well with or without tetracycline ([…]) for 72 h to induce carrier expression before respective assays were started. HEK293-FlpIn cells were cultivated with standard medium and served as control.
Uptake experiments were initiated by replacing the preincubation buffer by 500 μL transport buffer containing the radiolabeled test compound and were performed at 37°C. Transport was terminated by removing the transport buffer and washing five-times with ice-cold PBS. Cell monolayers were lysed in 1 N NaOH with 0.1% SDS and the cell-associated radioactivity was determined by liquid scintillation counting.
FIGURE 1 Comparative substrate screening for bile acids and sulfated steroids in NTCP-, ASBT-, and SOAT-HEK293 cells. Transport assays were performed with the indicated substrates in NTCP-HEK293, ABST-HEK293, SOAT-HEK293, and HEK293-FlpIn cells. Cells were washed and equilibrated with Na^+-containing transport buffer (filled bars) or with Na^+-free transport buffer (open bars) at 37°C. For uptake, cells were incubated with radiolabeled steroid compounds at a final concentration of 200 nM in Na^+-containing or Na^+-free transport buffer for 10 min. Radiolabeled bile acids were used at 1 µM concentrations and transport was analyzed over 30 min. HEK293-FlpIn cells served as additional controls. After the indicated time intervals, cells were washed with ice-cold PBS, lysed and subjected to liquid scintillation counting. […] 3-OH, trihydroxylated BAs; 2-OH, dihydroxylated BAs; 1-OH, monohydroxylated BAs.

The mark [3] stands for this setting: SOAT IC50, substrate [3H]DHEAS, 200 nM [3H]DHEAS.
Setting [4] is: SOAT IC50, substrate [3H]TLC, 200 nM [3H]TLC.
The mark [5] stands for this setting: radiolabeled bile acids 1 µM, 30 min.

Usually IC50 stands for the concentration that gives 50% inhibition. `C[C@H](CCC(=O)NCCS(=O)(=O)O)[C@H]1CC[C@H]2[C@@H]3[C@H](O)C[C@@H]4C[C@H](O)CC[C@]4(C)[C@H]3C[C@H](O)[C@]12C` [Taurocholic acid]: the concentration for half-maximal inhibition (IC50) in experiment [1] (setting [3]) is 99.7 µM; in experiment [1] (setting [4]) it was 143 µM. Besides, the “Transport activity grading NTCP (mean uptake)” value (shortened to “Transport activity grading NTCP”) in experiment [2] (setting [5]) is on record as “+++ (“+++” for values above 1000 pmol/mg protein/30 min)”.

In the case of `C[C@H](CCC(=O)NCCS(=O)(=O)O)[C@H]1CC[C@H]2[C@@H]3CC[C@@H]4C[C@H](O)CC[C@]4(C)[C@H]3CC[C@]12C` [Taurolithocholic acid], the IC50 in experiment [1] (200 nM [3H]DHEAS, read-out: SOAT IC50, substrate [3H]DHEAS) turned out to be 3.9 µM; in experiment [1] (200 nM [3H]TLC, read-out: SOAT IC50, substrate [3H]TLC), 2.6 µM. Further, in experiment [2] (setting [5]), the “Transport activity grading NTCP” value is “+++ (“+++” for values above 1000 pmol/mg protein/30 min)”.

`C[C@]12CC[C@H](OS(=O)(=O)O)CC1=CC[C@@H]1[C@@H]2CC[C@]2(C)C(=O)CC[C@@H]12` [DHEAS, Dehydroepiandrosterone sulfate]: the half-maximal inhibitory concentration (IC50) in experiment [1] (setting [3]) stood at 51.7 µM; in experiment [1] (setting [4]), 15 µM. Further, in experiment [2] (radiolabeled steroid compounds 200 nM, 10 min), the “Transport activity grading NTCP” value was “+ (Mean uptake “+” for values below 10)”.
